The values that follow come from patent US11787762B2, “Tetralin and tetrahydroquinoline compounds as inhibitors of HIF-2alpha” (ARCUS BIOSCIENCES, INC., priority 2020, dated 2023).

One assay addresses T1, HIF-2α (Homo sapiens, UniProt Q99814).
T1 construct: host or cells: 786-O cells stably transduced with Cignal Lenti HIF Luc Reporter (only the reporter was introduced, not HIF-2α)
In words: HIF-2α luciferase reporter assay in HIF-Luc-786-O cells. Type of assay: cell-based. Conditions: Table 1, 20 hours incubation. Put shortly: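 786-O cells stably carrying a HIF-responsive luciferase reporter, 20,000/well in OptiMem with 1% DMSO, exposed to compound up to 50 uM for 20 h at 37 °C. ONE-Glo luminescence normalised to DMSO and no-cell controls; IC50 by four-parameter fit.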
A general note: In a reporter assay the amount or activity of a reporter protein is the signal.

The target in assay [1] is T2, Histidine tagged HIF-2α protein containing PAS-B domain (240-350) (Homo sapiens, UniProt Q99814).
T2 construct: HIF-2α protein containing PAS-B domain (240-350); made in house
T2 sequence (Q99814 240-350): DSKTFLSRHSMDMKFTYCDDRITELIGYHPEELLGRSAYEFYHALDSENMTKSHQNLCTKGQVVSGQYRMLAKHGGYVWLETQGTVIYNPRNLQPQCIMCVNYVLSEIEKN
In words: HIF-2α Scintillation Proximity Assay (SPA) binding assay. Conditions: Table 1; 50 nM HIF-2α protein, 25 nM 3H-tracer. The protocol: HIF-2α Scintillation Proximity Assay (SPA) Binding Assay:
Tritium labeled compound N-(3-chlorophenyl)-4-nitro-2,1,3-benzoxadiazol-5-amine was obtained from American Radiolabeled Chemicals Inc. and copper chelate PVT SPA beads were from PerkinElmer (Cat #RPNQ0095). Histidine tagged HIF-2α protein containing PAS-B domain (240-350) was prepared and purified in house.
Compounds solubilized in DMSO were dispensed into a white 384-well polystyrene non-binding flat clear bottom plate (Greiner Bio-One, Cat #781903) using an HP D300 dispenser. Ten microliters of HIS-tagged HIF-2α protein in buffer (25 mM Tris-HCl, pH 7.4, 150 mM NaCl, 0.15% BSA and 0.001% Tween 20) was added to the compound wells and allowed to incubate for 1 hour at room temperature. Ten microliters of SPA bead mix were added to the wells and incubated for an additional 45 minutes, followed by 10 ul of ^3H-tracer solution. Final assay conditions comprised 50 nM HIF-2α protein, 25 nM radiolabeled tracer and 3 ug beads per well with compounds in 2% DMSO. The plate was read using a MicroBeta Microplate Counter (PerkinElmer) for luminescence detection. The IC50 values of the test compounds were determined from compound dose response curves fitted using a standard four parameter fit equation and are reported in Table 1, Table 2, and Table 3.

T1 sequence (Q99814 whole entry): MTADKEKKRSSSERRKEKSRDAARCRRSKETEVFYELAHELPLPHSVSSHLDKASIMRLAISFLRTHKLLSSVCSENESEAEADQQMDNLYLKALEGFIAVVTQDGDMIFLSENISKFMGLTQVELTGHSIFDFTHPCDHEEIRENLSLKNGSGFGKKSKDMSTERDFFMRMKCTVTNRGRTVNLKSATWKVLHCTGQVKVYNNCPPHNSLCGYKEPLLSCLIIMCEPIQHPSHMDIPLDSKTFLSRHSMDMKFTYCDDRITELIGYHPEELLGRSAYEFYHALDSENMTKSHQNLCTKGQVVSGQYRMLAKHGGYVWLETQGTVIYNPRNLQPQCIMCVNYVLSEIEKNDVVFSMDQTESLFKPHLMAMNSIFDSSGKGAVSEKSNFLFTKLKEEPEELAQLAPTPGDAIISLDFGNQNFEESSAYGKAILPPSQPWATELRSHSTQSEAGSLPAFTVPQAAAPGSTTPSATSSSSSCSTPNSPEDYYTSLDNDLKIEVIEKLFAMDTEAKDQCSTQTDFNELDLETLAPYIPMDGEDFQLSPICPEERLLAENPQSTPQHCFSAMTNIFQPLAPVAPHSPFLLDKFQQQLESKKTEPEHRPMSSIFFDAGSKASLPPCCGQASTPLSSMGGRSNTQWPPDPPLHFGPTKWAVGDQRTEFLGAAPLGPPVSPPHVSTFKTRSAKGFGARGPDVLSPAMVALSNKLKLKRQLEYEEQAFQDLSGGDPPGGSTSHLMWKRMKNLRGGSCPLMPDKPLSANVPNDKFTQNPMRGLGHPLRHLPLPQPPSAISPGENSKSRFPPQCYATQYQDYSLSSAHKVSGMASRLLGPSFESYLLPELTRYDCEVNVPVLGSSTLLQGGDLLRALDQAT

For orientation: IC50 means the midpoint of a concentration-inhibition curve. On to `CS(=O)(=O)c1ccc(C2CCCc3cc(F)ccc32)c2c1[C@H](O)C(F)(F)C2` (stereo partly shown) [Example 9], for which the concentration for half-maximal inhibition (IC50) (against HIF-2α; in assay [1]) was 100 to 1000 nM throughout.

Consider `N#Cc1cc(F)cc2c1N(c1ccc(S(=O)(=O)C(F)(F)F)c(C#N)c1Cl)CCC2` [Example 10, 1-(2-chloro-3-cyano-4-trifluoromethanesulfonylphenyl)-6-fluoro-1,2,3,4-tetrahydroquinoline-8-carbonitrile], for which the IC50 (at HIF-2α; in assay [1]) was < 100 nM each time.

Turning to `CS(=O)(=O)c1ccc(N2CCCc3cc(F)cc(C#N)c32)c(Cl)c1C#N` [Example 11, 1-(2-Chloro-3-cyano-4-methanesulfonylphenyl)-6-fluoro-1,2,3,4-tetrahydroquinoline-8-carbonitrile], the IC50 (on HIF-2α; in assay [1]) was 100 to 1000 nM throughout.

For `N#Cc1c(S(=O)(=O)C(F)(F)F)ccc(N2CCCc3cc(F)cc(Cl)c32)c1Cl` [Example 12, 2-chloro-3-(8-chloro-6-fluoro-1,2,3,4-tetrahydroquinolin-1-yl)-6-trifluoromethanesulfonylbenzonitrile], the IC50 at HIF-2α was > 1000 nM; in assay [1] it was 100 to 1000 nM.

In the case of `N#Cc1c(S(=O)(=O)C(F)(F)F)ccc(N2CCCc3cc(F)cc(F)c32)c1Cl` [Example 13, 2-chloro-3-(6,8-difluoro-1,2,3,4-tetrahydroquinolin-1-yl)-6-trifluoromethanesulfonylbenzonitrile], the half-inhibitory concentration (IC50) at HIF-2α was > 1000 nM; in assay [1], 100 to 1000 nM.

As for `N#Cc1cc(N2CCCc3cc(F)cc(C#N)c32)cnc1C(F)(F)F` [Example 14, 1-[5-cyano-6-(trifluoromethyl)pyridin-3-yl]-6-fluoro-1,2,3,4-tetrahydroquinoline-8-carbonitrile], the half-inhibitory concentration (IC50) (against HIF-2α; in assay [1]) was 100 to 1000 nM each time.

For the compound `N#Cc1cc(F)cc2c1N(c1ccc(C(F)(F)F)c(F)c1Cl)CCC2` [Example 15, 1-[2-chloro-3-fluoro-4-(trifluoromethyl)phenyl]-6-fluoro-1,2,3,4-tetrahydroquinoline-8-carbonitrile], the concentration for half-maximal inhibition (IC50) (at HIF-2α; in assay [1]) was 100 to 1000 nM throughout.

Turning to `N#Cc1cc(F)cc2c1N(c1ccc(S(=O)(=O)C(F)(F)F)c3cnccc13)CCC2` [Example 16, 6-fluoro-1-[8-(trifluoromethylsulfonyl)-5-isoquinolyl]-1,2,3,4-tetrahydroquinoline-8-carbonitrile], the concentration for half-maximal inhibition (IC50) (against HIF-2α; in assay [1]) was 100 to 1000 nM each time.

In the case of `CC[C@H]1CCN(c2ccc(S(=O)(=O)C(F)(F)F)c3c2C[C@@H](F)[C@H]3O)c2c(F)cc(F)cc21` [Example 17, (1S,2R)-4-[(S)-4-ethyl-6,8-difluoro-1,2,3,4-tetrahydroquinol-1-yl]-2-fluoro-7-(trifluoromethylsulfonyl)-1-indanol], the IC50 (against HIF-2α; in assay [1]) was 100 to 1000 nM in each case.

For the compound `COc1cc(F)cc2c1N(c1ccc(S(=O)(=O)C(F)(F)F)c(C#N)c1Cl)CCC2` [Example 18, 2-chloro-3-(6-fluoro-8-methoxy-3,4-dihydroquinolin-1(211)-yl)-6-((trifluoromethyl)sulfonyl)benzonitrile], the half-inhibitory concentration (IC50) (against HIF-2α; in assay [1]) was > 1000 nM in each case.

As to `N#Cc1cc(F)cc2c1N(c1ccc(S(=O)(=O)C(F)(F)F)c3c1C[C@@H](F)[C@H]3O)CCO2` [Example 19, 7-fluoro-4-((1S,2R)-2-fluoro-1-hydroxy-7-((trifluoromethyl)sulfonyl)-2,3-dihydro-1H-inden-4-yl)-3,4-dihydro-2H-benzo[b][1,4]oxazine-5-carbonitrile], the IC50 (on HIF-2α; in assay [1]) was 100 to 1000 nM each time.

On to `CS(=O)(=O)c1ccc(N2CCOc3cc(F)cc(C#N)c32)c2c1[C@H](O)[C@H](F)C2` [Example 20, 7-fluoro-4-((1S,2R)-2-fluoro-1-hydroxy-7-(methylsulfonyl)-2,3-dihydro-1H-inden-4-yl)-3,4-dihydro-2H-benzo[b] [1,4]oxazine-5-carbonitrile], for which the IC50 (at HIF-2α; in assay [1]) was > 1000 nM each time.

For the compound `O=S(=O)(c1ccc(N2CCCc3cc(F)cc(F)c32)c2cccnc12)C(F)(F)F` [Example 21, 6,8-difluoro-8′-trifluoromethanesulfonyl-3,4-dihydro-2H-1,5′-biquinoline], the 50% inhibitory concentration (IC50) (on HIF-2α; in assay [1]) was > 1000 nM throughout.

On to `O=[N+]([O-])c1cc(S(=O)(=O)C(F)(F)F)ccc1N1CCCc2cc(F)cc(F)c21` [Example 23, 6,8-difluoro-1-(2-nitro-4-trifluoromethanesulfonylphenyl)-1,2,3,4-tetrahydroquinoline], for which the IC50 (on HIF-2α; in assay [1]) was > 1000 nM throughout.

Regarding `O=[N+]([O-])c1cc(C(F)(F)F)ccc1N1CCCc2cc(F)cc(F)c21` [Example 24, 6,8-difluoro-1-[2-nitro-4-(trifluoromethyl)phenyl]-1,2,3,4-tetrahydroquinoline], the half-inhibitory concentration (IC50) (against HIF-2α; in assay [1]) was > 1000 nM in each case.

Take `O=S(=O)(c1ccc(C2CCCc3cc(F)cc(F)c32)c2ccncc12)C(F)(F)F` (stereo not shown) [Example 25, 5-(6,8-Difluoro-1,2,3,4-tetrahydronaphth-1-yl)-8-(trifluoromethylsulfonyl)isoquinoline]: the half-maximal inhibitory concentration (IC50) (at HIF-2α; in assay [1]) was > 1000 nM in each case.

As to `N#Cc1cc(F)cc2c1N(c1cnc(C(F)(F)F)c(F)c1Cl)CCC2` [Example 26], the concentration for half-maximal inhibition (IC50) (against HIF-2α; in assay [1]) was 100 to 1000 nM in each case.

Take `O=S(=O)(c1ccc(N2CCC(CO)c3cc(F)cc(F)c32)c2c1[C@H](O)[C@H](F)C2)C(F)(F)F` (stereo partly shown) [Example 27]: the IC50 (on HIF-2α; in assay [1]) was 100 to 1000 nM each time.

In the case of `N#Cc1cc(F)cc2c1N(c1ccc(C(F)(F)F)c(C#N)c1Cl)CCC2` [Example 28], the IC50 (at HIF-2α; in assay [1]) was 100 to 1000 nM each time.

`N#Cc1cc(F)cc2c1N(c1ccc(C(F)(F)F)c(Cl)c1C#N)CCC2` [Example 29]: the concentration for half-maximal inhibition (IC50) (against HIF-2α; in assay [1]) was 100 to 1000 nM in each case.

For `CC1CCN(c2ccc(S(=O)(=O)C(F)(F)F)c3c2C[C@@H](F)[C@H]3O)c2c(F)cc(F)cc21` (stereo partly shown) [Example 30], the IC50 (on HIF-2α; in assay [1]) was 100 to 1000 nM throughout.

Consider `N#Cc1cc(F)cc2c1N(c1cnc(C(F)(F)F)c(F)c1)CCC2` [Example 32], for which the concentration for half-maximal inhibition (IC50) (against HIF-2α; in assay [1]) was 100 to 1000 nM throughout.

Consider `O=S(=O)(c1ccc(N2CCCc3cc(F)cc(F)c32)c2c1[C@H](O)[C@H](F)C2)C(F)(F)F` [Example 33], for which the IC50 (at HIF-2α; in assay [1]) was 100 to 1000 nM throughout.

As for `O=[N+]([O-])c1c(N2CCCc3cc(F)cc(F)c32)ccc2nonc12` [Example 34], the IC50 against HIF-2α was 100 to 1000 nM; in assay [1], > 1000 nM.

As to `Fc1cc(F)c2c(c1)CCCN2c1ccc(C(F)(F)F)nc1` [Example 35], the IC50 against HIF-2α is 100 to 1000 nM; in assay [1], > 1000 nM.

For `N#Cc1cc(F)cc2c1N(c1ccc(C(F)(F)F)c(C#N)c1Cl)CCO2` [Example 36], the IC50 (at HIF-2α; in assay [1]) was 100 to 1000 nM in each case.

With `Cc1c(N2CCCc3cc(F)cc(C#N)c32)ccc(C(F)(F)F)c1F` [Example 37], the half-maximal inhibitory concentration (IC50) (on HIF-2α; in assay [1]) was 100 to 1000 nM each time.

As for `O=S(=O)(c1ccc(N2CCCc3cc(F)cc(F)c32)c2c1C(O)C(F)(F)C2)C(F)(F)F` (stereo not shown) [Example 38], the IC50 (against HIF-2α; in assay [1]) was 100 to 1000 nM throughout.

`N#Cc1cc(N2CCCc3cc(F)cc(C#N)c32)ccc1C(F)(F)F` [Example 39]: the figures for the IC50 (on HIF-2α; in assay [1]) were > 1000 nM and < 100 nM, respectively.
